Data reported in patent US11691960B2, “2-[thiophen-2-yl)formamido]-N-(phenyl)-2-methylpropanamide derivatives and the use thereof as medicament” (Boehringer Ingelheim International GmbH, priority 2020, dated 2023).
Like-named read-outs stand apart in the source and are kept apart here.

Key:
MDR1 (P-gp) = MDR1 (P-gp) (Homo sapiens (Human), UniProt P08183); experiment: Assay E: MDCK assay MDR-1 (P-gp); format: in vitro ADME; conditions: for efflux ratio at 2 h, 10 μM: human, final test concentration 10 μM
Description: The MDCK assays provide information on the potential of a compound to pass the blood brain barrier. Permeability measurements across polarized, confluent MDCK-MDR1 cell monolayers grown on permeable filter supports are used as an in vitro absorption model: apparent permeability coefficients (PE) of the compounds across the MDCK-MDR1 cell monolayers are measured (pH 7.4, 37° C.) in apical-to-basal (AB) and basal-to-apical (BA) transport direction. The AB permeability (PEAB) represents drug absorption from the blood into the brain and the BA permeability (PEBA) drug efflux from the brain back into the blood via both, passive permeability as well as active transport mechanisms mediated by efflux and uptake transporters that are expressed on the MDCK-MDR1 cells, predominantly by the overexpressed human MDR1. Identical or similar permeabilities in both transport directions indicate passive permeation, vectorial permeability points to additional active transport mechanisms. Higher PEBA than PEAB (PEBA/PEAB >3) indicates the involvement of active efflux mediated by MDR1, which might compromise the goal to achieve sufficient brain exposure.
Assay E. MDCK assay MDR-1 (P-gp)
Apparent permeability coefficients (Papp) of the compounds across MDCK-MDR1 monolayers (MDCKII cells transfected with human MDR1 gene) are measured in apical-to-basal (AB) and basal-to-apical (BA) direction.
MDCK-MDR1 cells (6×10^5 cells/cm^2) are seeded onto filter inserts (Corning, Transwell, polycarbonate, 0.4 μm pore size) and cultured for 9 to 10 days. Compounds dissolved in DMSO stock solution (1-20 mM) are diluted with HTP-4 buffer (128.13 mM NaCl, 5.36 mM KCl, 1 mM MgSO4, 1.8 mM CaCl2, 4.17 mM NaHCO3, 1.19 mM Na2HPO4, 0.41 mM NaH2PO4, 15 mM HEPES, 20 mM glucose, pH 7.4) supplemented with 0.25% BSA to prepare the transport solutions, resulting in a final test concentration of 1 μM or 10 μM and a final DMSO content of 0.5%. The transport solution is applied to the apical or basolateral donor side for measuring A-B or B-A permeability, respectively. The receiver side contains HTP-4 buffer supplemented with 0.25% BSA. Samples are collected at the start and end of experiment from the donor and at various time intervals for up to 2 hours from the receiver side for concentration measurement by HPLC-MS/MS. Sampled receiver volumes are replaced with fresh receiver solution.
All data reported for Assay E were measured with a final test concentration of 10 μM.

[1] = Assay F: tissue distribution in rat after oral application; format: in vivo; conditions: for in vivo efflux (in words): after oral application; for in vivo efflux (Assay F): oral 10 μmol/kg, muscle/brain tissue distribution
Excerpt: In order to estimate the amount of administered drug to enter the brain, the brain to plasma ratio is used as surrogate parameter. As efflux transporters (e.g. P-gp) are located at the blood-brain barrier, compounds acting as substrates will be actively transported out of the brain. As these efflux transporters are not expressed in muscle tissue, the relative distribution ratio of compound between muscle and brain tissue can be used as indication for an efflux in vivo in rats or mice. In case there is no in vivo efflux detectable (in rats/mice) and in case there is no efflux in vitro (MDCK-MDR1 (P-gp)), a brain exposure in patients can be expected [see Table 7 for comparison of in vitro efflux data (MDCK-MDR1 assay) and in vivo efflux data (tissue distribution in rat/mouse after oral application)].
Assay F. Determination of Tissue Distribution in Rat/Mouse After Oral Application of Compounds
Male Han Wistar rats or C57BL/6NRj mice were orally dosed with 10 μmol/kg of compound to be investigated, suspended in 0.5% Natrosol/0.015% Tween80. Blood was collected in K3EDTA containing vials from the sublingual vein in short time Isoflurane anesthesia in rat or from the saphenous vein in conscious mice at […], 0.25, 0.5, 1, 2, 3, 4, 8 and 24 hours post administration. Subsequently, plasma was prepared by centrifugation for 5 min at 5000 rpm and stored at −20° C.
Tissues and CSF were sampled in anaesthetized animals. CSF was collected from the cisterna magna. Following exsanguination a femoral muscle sample was collected. Cranium and the dura matter were removed and the complete brain was collected. Before transfer of the muscle and brain sample to pre-weight homogenization devices (Precellys®) the tissues were rinsed with saline and blotted dry.
For homogenization, four parts (v/w) homogenization buffer (37.5% acetonitrile, 37.5% methanol, 25% water) were added. Tissues were homogenized with a Precellys® Evolution homogenizer. Five μL of the homogenate were added to 70 μL of a 1 to 1 (v/v) mixture of acetonitrile and methanol and frozen for at least 10 min at −18° C.
For final sample preparation, the sample was centrifuged at 4000 rpm for 1 min, and an aliquot of the resulting supernatant (30 μL) was mixed with 170 μL formic acid prior to injection to LC-MS. Calibration curves were prepared accordingly in rat and mouse plasma, respectively. All animal care and experimental procedures at Boehringer Ingelheim were conducted in compliance with the German and European Animal Welfare Act (EU Directive 2010/63/EU) and were approved by the Regierungspräsidium Tübingen as the responsible local German authority (reference number 35/9185.81-8/14-009-G).

human Factor Xa = human Factor Xa (Homo sapiens (Human), UniProt P00742); experiment: Assay C: human Factor Xa chromogenic substrate assay; format: biochemical; conditions: for IC50: human Factor Xa 0.86 nM, chromogenic substrate S2765; for Selectivity Assay C/Assay A: ratio IC50 Factor Xa / IC50 IDO1
Description: Assay C. In Vitro Testing of Human Factor Xa Potency:
Measurement of active human Factor Xa using a specific chromogenic substrate which is labeled with a p-nitro-anilino group (pNA). The cleavage in between the binding of the peptide substrate and the pNA-group is followed by a color change, which can be detected at 405 nm. The amount of cleaved substrate is directly proportional to the amount of active Xa.
[…] (100 U) human Factor Xa (Enzyme Research Laboratories; HFXa1011) were solved in 0.444 ml H2O (Millipore), which accords to a stock solution of 19.28 μM or 225 U/ml. Further dilutions were made in the assay buffer (Tris 100 mM, NaCL 150 mM, adjusted to a pH of 7.8 with HCL, containing 0.1% BSA and 0.05% Tween20). 25 mg (1 vial) of the chromogenic substrate S2765 (Chromogenix; S2765) was solved in 3.5 ml H2O (Millipore) to achieve a stock solution of 10 mM.
Compounds were solved and diluted in DMSO where the final dilution in the assay is 1:10 resulting in a final concentration of 1% DMSO.
• the prefinal dilution step was 1:10 in the assay buffer containing 11% DMSO resulting in 10% DMSO • final dilution in the assay is 1:10 resulting in a final concentration of 1% DMSO
Compounds were tested at final concentrations of 10 μM to 0.003 nM or lower. 5 μl human factor Xa (final concentration 0.86 nM), 2 μl compound dilution or assay buffer (containing 10% DMSO) and 8 μl assay buffer were pipetted in triplicates into a 384-well plate and incubated in the Thermomix at 24° C. for 10 minutes.
After addition of 5 μl chromogenic substrate (final concentration 0.5 mM) the enzyme-substrate reaction started and the kinetic measurement with the SpectraMax Monochromator was started within 1-2 minutes. • Parameter of measurement: (Spectra ax, Monochromator) • Absorbance; 1.LM 405 nM • Kinetic: 16 min each 2nd minute (9 times) • Negative Control (NC) 5 μl human factor Xa+10 μl assay buffer+5 μl Substrate • Positive Control (PC): 5 μl human factor Xa+2 μl Nafamostat (commercially available, final concentration: 1 μM)+8 μl assay buffer+5 μl Substrate • Blank (optional): 15 μl assay buffer+5 μl Substrate
Calculation of IC50, KI and the % effect at the highest concentration (Ratio)
For the calculation the average of the Vmax-values in between 120 sec to 720 sec were taken.
A x/y-Plot was created: x=log (M, Compound); y=vmax (drfu/min)
The data were analyzed with the curve fitting model: log (inhibitor) vs. response—Variable slope (four parameters)
The results of this fit were Top, Bottom, Log (IC50, M), Hillslope and IC50 (M)

human androgen receptor = human androgen receptor (Homo sapiens (Human), UniProt P10275); experiment: Assay B: human androgen receptor luciferase reporter assay (Indigo Biosciences); format: cell-based
Excerpt: Assay B. In Vitro Testing of Androgen Receptor Potency:
The human androgen receptor (AR) assay was run using Product #IB03001 from Indigo Biosciences. The cell line provided in this kit carries a reporter gene, induced upon AR stimulation. This reporter gene is cDNA encoding for beetle luciferase, a 62 kD protein originating from the North American firefly (Photinus pyralis). This luciferase catalyzes the mono-oxidation of D-luciferin yielding oxyluciferin, adenosine monophosphate, pyrophosphate, CO2, and photon emission. The luminescence intensity of the reaction is quantified using a luminometer.
To run the assay, the cells are thawed by adding pre-warmed cell recovery medium to each tube, then placed in a 37° C. water bath. 30000 viable cells in 200 μl are plated (collagen coated plates) and incubated at 37° C., ≥85% humidity, 5% CO2 for 24 hours. Media is replaced with compound screening medium. Cells are then challenged with 125 pM (EC80) 6a-Fl Testosterone and compounds are applied in half logarithmic dilutions from 10 μM to 10 nM. Assay plates are then incubated at 37° C., ≥85% humidity, 5% CO2 for 22-24 hours. Media is replaced with luciferase detection reagent and allowed 5 minutes to equilibrate prior to luminescence quantification.
Data Analysis consisted of calculating percentage of control between 100% (Negative control:6a-Fl Testosterone) and 0 (positive control: no 6a-FL Testosterone). Fitting of normalized values was made 4-Parameter sigmoidal binding curve (Log[conc]) vs. signal.

[2] = MDCK-MDR1, pH 7.4, Table 7, read-out: MDCK-MDR1 efflux ratio (Assay E)
[3] = pH 7.4, MDCK-MDR1 monolayers, mean +− standard deviation, read-out: Efflux ratio Assay E

human Factor Xa, sequence (P00742 235-488): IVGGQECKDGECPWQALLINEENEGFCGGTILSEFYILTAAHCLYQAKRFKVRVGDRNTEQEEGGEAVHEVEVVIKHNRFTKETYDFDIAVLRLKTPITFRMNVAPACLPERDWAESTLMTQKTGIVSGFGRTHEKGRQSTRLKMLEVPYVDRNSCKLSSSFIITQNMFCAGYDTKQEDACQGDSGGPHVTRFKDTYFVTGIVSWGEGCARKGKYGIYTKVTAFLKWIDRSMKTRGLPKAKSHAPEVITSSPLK
human Factor Xa, sequence (P00742 41-179 partner): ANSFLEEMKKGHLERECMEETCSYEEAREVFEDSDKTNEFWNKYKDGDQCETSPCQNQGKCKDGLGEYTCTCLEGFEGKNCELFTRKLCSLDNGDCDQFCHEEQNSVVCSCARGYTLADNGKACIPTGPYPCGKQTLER
MDR1 (P-gp), sequence (P08183 whole entry): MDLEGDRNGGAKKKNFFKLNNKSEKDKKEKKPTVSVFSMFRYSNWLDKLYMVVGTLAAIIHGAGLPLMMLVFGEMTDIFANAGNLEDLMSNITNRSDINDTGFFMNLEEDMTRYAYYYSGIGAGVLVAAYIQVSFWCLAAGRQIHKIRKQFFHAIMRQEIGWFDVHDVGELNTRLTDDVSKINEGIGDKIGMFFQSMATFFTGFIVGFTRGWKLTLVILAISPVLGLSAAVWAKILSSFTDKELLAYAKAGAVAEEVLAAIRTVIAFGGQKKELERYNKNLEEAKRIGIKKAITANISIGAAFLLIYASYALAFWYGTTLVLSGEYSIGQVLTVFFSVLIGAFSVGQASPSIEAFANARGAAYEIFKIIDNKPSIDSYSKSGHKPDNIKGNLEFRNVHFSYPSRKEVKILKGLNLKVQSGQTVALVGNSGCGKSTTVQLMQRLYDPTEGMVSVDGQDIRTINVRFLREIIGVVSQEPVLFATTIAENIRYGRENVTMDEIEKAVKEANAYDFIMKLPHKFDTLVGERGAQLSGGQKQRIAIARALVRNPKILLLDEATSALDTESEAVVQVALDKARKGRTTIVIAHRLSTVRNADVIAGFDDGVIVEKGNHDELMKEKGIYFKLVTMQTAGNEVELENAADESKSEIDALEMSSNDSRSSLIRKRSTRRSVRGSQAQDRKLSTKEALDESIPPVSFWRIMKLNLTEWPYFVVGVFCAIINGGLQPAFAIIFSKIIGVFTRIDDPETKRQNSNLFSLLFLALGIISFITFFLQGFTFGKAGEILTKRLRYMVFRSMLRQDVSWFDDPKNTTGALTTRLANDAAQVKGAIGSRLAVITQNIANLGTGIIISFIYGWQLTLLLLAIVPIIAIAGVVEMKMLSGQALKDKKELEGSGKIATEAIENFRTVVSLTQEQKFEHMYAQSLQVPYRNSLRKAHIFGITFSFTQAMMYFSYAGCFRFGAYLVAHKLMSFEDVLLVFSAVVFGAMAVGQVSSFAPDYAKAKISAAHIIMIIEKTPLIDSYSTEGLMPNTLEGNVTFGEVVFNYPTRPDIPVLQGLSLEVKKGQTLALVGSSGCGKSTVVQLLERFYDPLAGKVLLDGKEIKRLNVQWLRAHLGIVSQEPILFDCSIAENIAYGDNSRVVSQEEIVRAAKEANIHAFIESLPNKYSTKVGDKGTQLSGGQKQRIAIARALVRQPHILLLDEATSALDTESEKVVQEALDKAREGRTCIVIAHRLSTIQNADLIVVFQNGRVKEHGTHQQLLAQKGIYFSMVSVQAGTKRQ
human androgen receptor, sequence (P10275 whole entry): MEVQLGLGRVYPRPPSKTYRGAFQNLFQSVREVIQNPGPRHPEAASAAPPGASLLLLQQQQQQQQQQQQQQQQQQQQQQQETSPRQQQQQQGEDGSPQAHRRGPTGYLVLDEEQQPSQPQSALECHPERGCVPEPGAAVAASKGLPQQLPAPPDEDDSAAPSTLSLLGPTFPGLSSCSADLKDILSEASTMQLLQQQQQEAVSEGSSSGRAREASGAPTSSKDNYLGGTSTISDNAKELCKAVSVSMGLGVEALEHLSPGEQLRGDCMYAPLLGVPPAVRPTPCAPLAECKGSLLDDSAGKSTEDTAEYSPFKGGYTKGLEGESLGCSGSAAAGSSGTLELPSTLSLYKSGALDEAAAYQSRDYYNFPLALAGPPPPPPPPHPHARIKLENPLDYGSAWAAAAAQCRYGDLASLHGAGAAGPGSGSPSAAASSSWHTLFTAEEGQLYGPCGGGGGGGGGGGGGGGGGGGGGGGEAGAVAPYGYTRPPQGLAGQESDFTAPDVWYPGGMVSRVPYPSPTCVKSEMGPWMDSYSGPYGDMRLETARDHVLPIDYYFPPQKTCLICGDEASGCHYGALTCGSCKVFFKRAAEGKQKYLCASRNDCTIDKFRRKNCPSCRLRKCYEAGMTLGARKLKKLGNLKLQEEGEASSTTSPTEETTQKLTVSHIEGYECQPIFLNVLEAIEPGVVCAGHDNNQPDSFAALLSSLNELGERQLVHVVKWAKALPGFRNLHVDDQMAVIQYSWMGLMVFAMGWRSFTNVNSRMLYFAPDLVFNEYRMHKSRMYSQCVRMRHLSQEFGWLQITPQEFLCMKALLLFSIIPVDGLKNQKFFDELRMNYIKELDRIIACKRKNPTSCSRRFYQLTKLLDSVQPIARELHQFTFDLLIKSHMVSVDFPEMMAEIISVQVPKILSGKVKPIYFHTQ

Row | efflux ratio at 2 h, 10 μM (MDR1 (P-gp); [2]) | in vivo efflux (in words) [1] | in vivo efflux (Assay F) [1] | IC50 (human Factor Xa) | Selectivity Assay C/Assay A (human Factor Xa) | in vitro efflux, MDCK-MDR1 (in words) (MDR1 (P-gp)) | efflux ratio at 2 h, 10 μM (MDR1 (P-gp); [3]) | inhibition of the human Factor Xa enzyme (in words) (human Factor Xa) | IC50 (human androgen receptor; challenge with 125 pM (EC80) 6a-Fl Testosterone, mean +− standard deviation) | Selectivity Assay B/Assay A (human androgen receptor; ratio IC50 androgen receptor / IC50 IDO1) | Structure (SMILES)
1 | 1 | substantial in vivo efflux | 3.3 (rat) | > 10 µM | >175 | – | – | – | – | – | CC(C)(NC(=O)c1ccc(Cl)s1)C(=O)Nc1ccc2c(c1)CCN(C(=O)C(F)(F)F)CC2 [WO2007/003536 Ex. 4]
2 | 7.6 | substantial in vivo efflux | 12.6 (rat) | > 10 µM | >164 | – | – | – | – | – | CC(=O)N1CCc2ccc(NC(=O)C(C)(C)NC(=O)c3ccc(Cl)s3)cc2CC1 [WO2007/003536 Ex. 6]
3 | – | – | – | 0.026 µM | 0.11 | high efflux | – | inhibit the human Factor Xa enzyme | – | – | CC(C)(NC(=O)c1ccc(Br)s1)C(=O)Nc1ccc(N2CCOCC2=O)c(Cl)c1 [WO2005/111029 Ex. 28]
4 | 1.8 | substantial in vivo efflux | 6.2 (rat) | > 10 µM | >13 | – | – | – | – | – | CC(C)(NC(=O)c1ccc(Cl)s1)C(=O)Nc1ncc2c(n1)CCN(Cc1ccccc1)CC2 [WO2007/003536 Ex. 159]

The next lines start with the compound.

Row | Structure (SMILES) | efflux ratio at 2 h, 10 μM (MDR1 (P-gp); [2]) | in vivo efflux (in words) [1] | in vivo efflux (Assay F) [1] | IC50 (human Factor Xa) | Selectivity Assay C/Assay A (human Factor Xa) | in vitro efflux, MDCK-MDR1 (in words) (MDR1 (P-gp)) | efflux ratio at 2 h, 10 μM (MDR1 (P-gp); [3]) | inhibition of the human Factor Xa enzyme (in words) (human Factor Xa) | IC50 (human androgen receptor; challenge with 125 pM (EC80) 6a-Fl Testosterone, mean +− standard deviation) | Selectivity Assay B/Assay A (human androgen receptor; ratio IC50 androgen receptor / IC50 IDO1)
5 | Cc1cc(NC(=O)C(C)(C)NC(=O)c2ccc(Cl)s2)ccc1C(=O)N1CCCC1 [WO2005/111014 Ex. 4] | – | – | – | 0.008 µM | 0.03 | high efflux | 5.7 | inhibits the human Factor Xa enzyme | – | –
6 | C#Cc1ccc(C(=O)NC(C)(C(=O)Nc2ccc(N3CCOCC3=O)c(C)c2)C(F)(F)F)s1 (stereo not shown) [5-ethynyl-N-{1-trifluoromethyl-1-[3-methyl-4-(3-oxomorpholin-4-yl)phenylcarbamoyl]ethyl}thiophene-2-carboxamide] | – | – | – | 0.048 µM | 0.08 | high efflux ratio | 32 | inhibits the human Factor Xa enzyme | – | –
7 | Cc1cc(NC(=O)C(C)(C)NC(=O)c2ccc(Cl)s2)ccc1N1CCOCC1=O [WO2005/111029 Ex. 8] | – | – | – | 0.04 µM | 0.01 | high efflux | – | inhibit the human Factor Xa enzyme | – | –
8 | CC(C)(NC(=O)c1ccc(Cl)s1)C(=O)Nc1ccc(Cl)cc1 [Example 5, 2-[(5-chlorothiophen-2-yl)formamido]-N-(4-chlorophenyl)-2-methylpropanamide] | – | – | – | > 10 µM | >57 | – | – | – | > 10 µM | >58
